Species: Danio rerio
Assay: Neuroprotective activity in 3 days postfertilized zebrafish larvae assessed as reduction of all-trans retinoic acid-induced apoptosis at 1 uM after 24 hrs by fluorescence microscopy
Assay type: functional
Design: scale not given: the % may be the effect or the level left

Going from `COc1cc(-c2cc(C)ccn2)nc(/C=N/O)c1SC` to `COc1cc(-c2cccc(C)n2)nc(/C=N/O)c1SC`, the Activity falls from 70% to 40%.

Work on `O=C(O)CCCCC1CCSS1` (stereo not drawn) [LIPOIC ACID, ALPHA] yielded an Activity of 61%.

Source: ChEMBL document CHEMBL2429867, “Generation by mutasynthesis of potential neuroprotectant derivatives of the bipyridyl collismycin A” (2013)
